The nature of data set [1]: Cannabidiol distribution in brain and plasma 1 h after IN and IV administration. In kind it is in vivo. The conditions noted are these: rat. How it is done: The administered intranasal dose used in each animal was 220 μg CBD/kg body weight. The applied volume was approximately 15 μL/nostril. For the intravenous dose, a solution of CBD for injection was prepared by dissolving CBD in a small portion of ethanol, then mixed with a sterile saline solution (pH7.4) containing 1.5% Tween 80 and 0.1% ascorbic acid. The final concentration of ethanol was 5%. […] After 60 minutes from administration, the animals were euthanized by CO2 aspiration. […] The brain was then carefully excised, washed with saline, frozen at −80° C. and lyophilized.
The quantification of CBD was carried out at 220 nm.

For data set [2] the following is noted: CBD in oil, humans; cited from earlier work.
For data set [3] the following is noted: rat, in vivo, iv.
Experimental: (§1) For intravenous administration, aqueous solution of GR hydrochloride was prepared by dissolving the drug in a sterile saline solution. Approximately 0.3 ml of the solution were injected into the tail vein of a sedated animal (GR HCl dose=36 μg/kg body weight). The animals were sedated with isoflurane vapor just before administration. Sixty minutes after the administration, the animals were euthanized by CO2 aspiration. Then, blood sample was taken by cardiopuncture into heparinized tubes. Blood in heparinized tubes was centrifuged at 10,000-g for 10 min and the separated plasma was transferred into vials and kept at −20° C. until analyzed by HPLC. The brain was then carefully excised, washed with saline and frozen at −80° C.
(§2) Quantification of GR in plasma was performed by mixing 1 ml of plasma sample with 2 ml of methanol, followed by vortex stirring and centrifugation at 10,000-g for 10 min. The brain was homogenized with 2 ml of methanol/0.5 N HCl solution (1:1) followed by centrifugation at 10,000-g for 10 min. The supernatant solutions of both plasma and brain extracts were analyzed immediately by HPLC. Aliquots of 20 μl from each sample were injected into a HPLC system, equipped with a prepacked CN column. The quantification of GR was carried out at 301 nm. The samples were chromatographed using an isocratic mobile phase consisting of acetonitrile-acetate buffer solution pH5 (45:55) at a flow rate of 1 ml/min.
For data set [4] the following is noted: after IV curcumin in rats; cited from earlier work.
Data set [5] is described as follows: Granisetron distribution in brain and plasma 1 h after IN and IV administration. To be noted: rat.
Experimental: as §1, §2
For data set [6] the following is noted: cited from earlier work.

Where two headings read alike, the source gives them in different places.

Take `C=C(C)[C@@H]1CCC(C)=C[C@H]1c1c(O)cc(CCCCC)cc1O` [CBD, Cannabidiol]: the concentration at 1 h in data set [1] (plasma, IV injection of CBD solution, dose 220 μg/Kg, 1 hour after administration, read-out: Plasma level (cannabidiol)) turned out to be 71.2 ng/mL. Further, in data set [1] (1 h after iv administration of the same dose (220 μg/Kg)), the CBD brain concentration entry is “no detectable concentration”. Moreover, in data set [1] (IV injection of CBD solution, dose 220 μg/Kg, 1 hour after administration), the “Brain Level (cannabidiol)” value is “Undetectable”. Besides, the oral bioavailability entry in data set [2] is “about 6%”.

As to `CN1C2CCCC1CC(NC(=O)c1nn(C)c3ccccc13)C2.Cl` (stereo not shown) [GR-HCl], the “portion of the dose that reached the brain” value in data set [3] is on record as “ca. 0.64%”.

On to `COc1cc(/C=C/C(=O)CC(=O)/C=C/c2ccc(O)c(OC)c2)ccc1O` [curcumin, diferuloyl methane], for which the t1/2 in data set [4] is on record as 28.2 min.

`CN1C2CCCC1CC(NC(=O)c1nn(C)c3ccccc13)C2` (stereo not shown) [granisetron, Granisetron]: the “Plasma level (granisetron)” value in data set [5] (IV injection of GR hydrochloride in saline (GR HCl 36 μg/kg), 1 hour after administration) is listed as “Undetectable”. This compound also came in with a concentration at 1 h in data set [5] (brain, iv, 36 μg/kg) of 59.7 ng/g. In addition, in data set [6] (1 mg oral dose), the “average Cmax” value is 3.63 ng/mL. For the same compound, in data set [6] (in vivo), the “Vd (volume of distribution)” value is given as 3.94 L/kg, the “clearance (CL)” value is 0.41 L/h/kg, the protein binding is on record as 65% and the t1/2 was 6.23 h.

(Values after patent publication US12624173B2, “Biodegradable polymeric compositions, methods of preparation and uses thereof” (B.G. NEGEV TECHNOLOGIES AND APPLICATIONS LTD., AT …, priority 2019, dated 2026).)
